Measured values: publication PMC6479946 (Molecules, 2019)
Where “and” joins values, the source holds several entries; their conditions need not be identical. Equal values may be shown once. Read-outs that look alike come from different tables or passages of the source.

Columns and labels:
in vivo = settings: for AUC(0-inf) / Tmax / AUC(0-t) / CL/F / Cmax / k el / MRT: male, Sprague-Dawley, po, 5 mg/kg; for AUC(0-inf): AUC(0-∞) of MEM; for AUC(0-inf) / Tmax / AUC(0-t) / CL/F / Cmax / k el / MRT / Ka of MEM / T1/2a of MEM / T1/2d of MEM / Vd of MEM: n = 8, mean ± SD; for Tmax: Tmax of MEM; for AUC(0-t): AUC(0-t) of MEM; for CL/F: CL/F of MEM; for Cmax: Cmax of MEM; for k el: Ke of MEM; for MRT: MRT of MEM
Procedure: The analytes were separated on an ACQUITY UPLC BEH C18 column (2.1 mm × 50 mm, 1.7 μm, Waters, Milford, USA). […] The flow rate was 0.3 mL/min. The column and sample-tray temperature were kept at 40 °C and 4 °C, respectively. The injection volume was 5.0 μL using a partial loop with needle over fill mode.
The compound dependent parameters used for analysis were summarized in Supplementary materials Table S1.
A rapid and convenient precipitation method was used to prepare the plasma samples. A 100 μL aliquot of plasma sample was spiked with 100 μL of IS solution and 300 μL of methanol in a 1.5 mL centrifuge tube; subsequently, the mixtures were vortex-mixed for 30.0 s and then centrifuged at 1.5 × 10^4× g for 10 min at 4 °C. A 100 μL aliquot of supernatant was combined with 25.0 μL of 0.1% formic acid water in a clean centrifuge tube and then vortex-mixed for 30 s. A 5.0 μL aliquot of mixture was injected into the UPLC-MS/MS system for analysis.
Fifty-six pathogen-free male adult rats were randomly divided into seven groups with eight rats in each group for pharmacokinetic study. […] One group was intragastrically administered with MEM hydrochloride 5.0 mg/kg dissolved in ultrapure water, namely, MEM group. […] The blood samples were immediately centrifuged at 4.0 × 10^3× g at […] for 10 min, and 100 μL of the supernatant plasma was transferred into another new 1.5 mL centrifuge tube and stored at −20 °C until UPLC-MS/MS analysis.
All standard curves and quantitative data were processed by Agilent Mass Hunter Quantitative Analysis Workstation Software. […] All the pharmacokinetic parameters were processed using the non-compartmental pharmacokinetics data analysis software program PK solutions 2.0^TM (Summit Research Services, USA). […] The AUC(0-t) was obtained by the linear/logarithmic trapezoidal rule, and the area under the plasma concentration versus time curve from zero to infinity (AUC(0-∞)) was calculated by means of the trapezoidal rule with extrapolation to infinity with a terminal elimination rate constant. The Pearson correlation coefficient analysis was processed by IBM SPSS Statistics Version 21. A statistical analysis was performed using analysis of variance with α = 0.05 as the minimal level of significance.

[1] = rats, cited from earlier work
CYP2D6 = settings: rat liver microsomes; cited from earlier work
CYP1A2 = settings: rat liver microsomes; cited from earlier work
CYP3A4 = settings: rat liver microsomes; cited from earlier work
[2] = rat, plasma, rat plasma, oral MEM 5.0 mg/kg + HAR 20.0 mg/kg (HAR-L + MEM)
[3] = rat, plasma, rat plasma, oral MEM 5.0 mg/kg + HAR 40.0 mg/kg (HAR-M + MEM)
[4] = rat, plasma, rat plasma, oral MEM 5.0 mg/kg + HAR 80.0 mg/kg (HAR-H + MEM)
[5] = rat, plasma, rat plasma, oral MEM 5.0 mg/kg alone (MEM group)
[6] = rat plasma, oral MEM 5.0 mg/kg + HAR 20.0 mg/kg (HAR-L + MEM)
[7] = rat plasma, oral MEM 5.0 mg/kg + HAR 40.0 mg/kg (HAR-M + MEM)
[8] = rat plasma, oral MEM 5.0 mg/kg + HAR 80.0 mg/kg (HAR-H + MEM)
[9] = rat plasma, oral MEM 5.0 mg/kg alone (MEM group)

## CC12CC3CC(C)(C1)CC(N)(C3)C2 [MEM, 1-amino-3,5-dimethyladamantane, reference compound]
In vivo; rat, in vivo, rat plasma, oral MEM 5.0 mg/kg + HAR 80.0 mg/kg (HAR-H + MEM)
  AUC(0-inf): 781 ± 285 ng·h/mL
In vivo; rat, in vivo, rat plasma, oral MEM 5.0 mg/kg + HAR 20.0 mg/kg (HAR-L + MEM)
  Tmax: 3.13 ± 2.23 h
In vivo; [2]
  AUC(0-t): 392 ± 55.2 ng·h/mL
  AUC(0-inf): 477 ± 75.1 ng·h/mL
  CL/F: 178 mL/min/kg
  Cmax: 50.5 ± 7.59 ng/mL
  k el: 5.31e-05 s⁻¹
  MRT: 7.45 ± 1.51 h
In vivo; [3]
  AUC(0-t): 472 ± 105 ng·h/mL
  AUC(0-inf): 547 ± 142 ng·h/mL
  CL/F: 162 mL/min/kg
  Cmax: 74.9 ± 15 ng/mL
  k el: 5.97e-05 s⁻¹
  MRT: 6.25 ± 1.25 h
  Tmax: 1.56 ± 1.11 h
In vivo; [4]
  AUC(0-t): 603 ± 149 ng·h/mL
  CL/F: 118 mL/min/kg
  Cmax: 74.3 ± 26.6 ng/mL
  k el: 5.64e-05 s⁻¹
  MRT: 8.5 ± 3.74 h
  Tmax: 4 ± 1.85 h
In vivo; [5]
  AUC(0-t): 349 ± 46.2 ng·h/mL
  AUC(0-inf): 367 ± 4.87 ng·h/mL
  CL/F: 230 mL/min/kg
  Cmax: 84.8 ± 25.8 ng/mL
  k el: 7.25e-05 s⁻¹
  MRT: 4.04 ± 0.808 h
  Tmax: 1.31 ± 0.579 h
In vivo; [6]
  Ka of MEM: 0.595 ± 0.315 h⁻¹
  T1/2a of MEM: 1.37 ± 0.468 h
  T1/2d of MEM: 2.42 ± 1.06 h
  Vd of MEM: 60.1 ± 19.3 L/kg
In vivo; [7]
  Ka of MEM: 1.08 ± 1.05 h⁻¹
  T1/2a of MEM: 0.945 ± 0.398 h
  T1/2d of MEM: 1.67 ± 0.560 h
  Vd of MEM: 48.4 ± 16.4 L/kg
In vivo; [8]
  Ka of MEM: 0.481 ± 0.203 h⁻¹
  T1/2a of MEM: 1.61 ± 0.459 ^bb h
  T1/2d of MEM: 1.61 ± 0.529 h
  Vd of MEM: 38.3 ± 13.1 L/kg
In vivo; rat plasma, oral MEM 5.0 mg/kg + HAR 20.0, 40.0 or 80.0 mg/kg
  MEM in plasma within 24.0 h after co-administrations: a small amount of MEM could still be detected
In vivo; [9]
  MEM in plasma after 24 h of administration: no MEM was detected
  Ka of MEM: 1.73 ± 0.848 h⁻¹
  T1/2a of MEM: 0.482 ± 0.202 h
  T1/2d of MEM: 3.08 ± 2.37 h
  Vd of MEM: 53.8 ± 10.6 L/kg
In vivo; rat, in vivo
  T1/2e of MEM: 2.69 ± 0.306 h and 3.96 ± 1.44 h and 3.62 ± 1.42 h and 4.27 ± 3.03 h
[1]; administered orally with 1.22 mg eq./mL MEM
  T1/2e of MEM: 2.23 h
[1]; administered orally with 2.00 mg eq./mL MEM
  T1/2e of MEM: 3.92 h
CYP2D6
  inhibition of CYP2D6: strong inhibitor
CYP1A2
  inhibition of CYP1A2: weak inhibitor
CYP3A4
  inhibition of CYP3A4: weak inhibitor
